# Measured values as given in patent publication US11000033B2, “Ketone or oxime compound, and herbicide” (NISSAN CHEMICAL CORPORATION, priority 2014, dated 2021).
# How the values were obtained:
# Type in all cases: in vivo
# [1] = test system: wheat; assay: Test Example 5: effect on crop by foliage application, plastic box (symbol e); conditions: 320 g/ha, 3 weeks after application
# Summary of the method: (§1)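 Seeds were sown in spots in sterilized diluvial soil held in a plastic box 21 cm × 13 cm × 7 cm deep, covered with about 1.5 cm of soil, and grown in a greenhouse at 25° C. to 30° C.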
# [2] = test system: Apera spica-venti; assay: Test Example 5: herbicidal effect by foliage application, plastic box (symbol L); conditions: 320 g/ha, 3 weeks after application
# Summary of the method: (§2)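 Greenhouse foliar test: seedlings at 14 days, grown 25° C. to 30° C. in sterilized diluvial soil; compound applied as an aqueous dilution of an emulsion; response read 3 weeks after spraying.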
# [3] = test system: Galium spurium; assay: Test Example 5: herbicidal effect by foliage application, plastic box (symbol Q); conditions: 320 g/ha, 3 weeks after application
# Summary of the method: as §2
# [4] = test system: Leptochloa chinensis; assay: Test Example 3: herbicidal effect by foliage application, Wagner pot (symbol D); conditions: application herbicide amount 320 g/ha
# Summary of the method: (§3)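 Weeds and rice were sown in alluvial soil under 0.1–0.5 cm of standing water and grown for 14 days in a 25–30 °C greenhouse. An emulsion of the compound, diluted in water to a set dose, was sprayed evenly onto the foliage. Effect was scored against fixed criteria 3 weeks after treatment.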
# [5] = test system: Monochoria vaginalis; assay: Test Example 1: herbicidal activity, application before weed generation in submerged conditions (symbol C); conditions: application herbicide amount 320 g/ha
# Summary of the method: (§4)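 Mixed weed seeds sown in alluvial soil under 4 cm of water, with rice seedlings at the 2.5-leaf stage added. Same-day treatment: emulsion diluted to a set herbicide amount onto the water. Three weeks at 25–30 °C, then graded on a six-step scale.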
# [6] = test system: Digitaria ciliaris; assay: Test Example 5: herbicidal effect by foliage application, plastic box (symbol F); conditions: 320 g/ha, 3 weeks after application
# Summary of the method: as §2
# [7] = test system: Cyperus difformis; assay: Test Example 3: herbicidal effect by foliage application, Wagner pot (symbol E); conditions: application herbicide amount 320 g/ha
# Summary of the method: as §3
# [8] = test system: soybean; assay: Test Example 5: effect on crop by foliage application, plastic box (symbol d); conditions: 320 g/ha, 3 weeks after application
# Summary of the method: as §1
# [9] = test system: Abutilon theophrasti; assay: Test Example 5: herbicidal effect by foliage application, plastic box (symbol M); conditions: 320 g/ha, 3 weeks after application
# Summary of the method: as §2
# [10] = test system: beet; assay: Test Example 5: effect on crop by foliage application, plastic box (symbol f); conditions: 320 g/ha, 3 weeks after application
# Summary of the method: as §1
# [11] = test system: transplanted rice plant; assay: Test Example 1: effect on crop, application before weed generation in submerged conditions (symbol a); conditions: application herbicide amount 320 g/ha
# Summary of the method: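 Rice at 2.5 leaf stage transplanted into submerged soil (4 cm depth) sown with three weed species; herbicide applied before weed emergence.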
# [12] = test system: Chenopodium album; assay: Test Example 5: herbicidal effect by foliage application, plastic box (symbol O); conditions: 320 g/ha, 3 weeks after application
# Summary of the method: as §2
# [13] = test system: rapeseed; assay: Test Example 5: effect on crop by foliage application, plastic box (symbol g); conditions: 320 g/ha, 3 weeks after application
# Summary of the method: as §1
# [14] = test system: Echinochloa oryzacola Vasing.; assay: Test Example 1: herbicidal activity, application before weed generation in submerged conditions (symbol A); conditions: application herbicide amount 320 g/ha
# Summary of the method: as §4
# [15] = test system: corn; assay: Test Example 5: effect on crop by foliage application, plastic box (symbol c); conditions: 320 g/ha, 3 weeks after application
# Summary of the method: as §1
# [16] = test system: Amaranthus retroflexus; assay: Test Example 5: herbicidal effect by foliage application, plastic box (symbol N); conditions: 320 g/ha, 3 weeks after application
# Summary of the method: as §2
# [17] = test system: Veronica persica; assay: Test Example 5: herbicidal effect by foliage application, plastic box (symbol R); conditions: 320 g/ha, 3 weeks after application
# Summary of the method: as §2
# [18] = test system: Scirpus juncoides; assay: Test Example 1: herbicidal activity, application before weed generation in submerged conditions (symbol B); conditions: application herbicide amount 320 g/ha
# Summary of the method: as §4
# [19] = test system: Avena fatua; assay: Test Example 5: herbicidal effect by foliage application, plastic box (symbol I); conditions: 320 g/ha, 3 weeks after application
# Summary of the method: as §2
# [20] = test system: Alopecurus myosuroides; assay: Test Example 5: herbicidal effect by foliage application, plastic box (symbol J); conditions: 320 g/ha, 3 weeks after application
# Summary of the method: as §2
# [21] = test system: Echinochloa crus-galli var. crus-galli; assay: Test Example 3: herbicidal effect by foliage application, Wagner pot (symbol H); conditions: application herbicide amount 320 g/ha
# Summary of the method: as §3
# [22] = test system: Echinochloa crus-galli var. crus-galli; assay: Test Example 5: herbicidal effect by foliage application, plastic box (symbol H); conditions: 320 g/ha, 3 weeks after application
# Summary of the method: as §2
# [23] = test system: directly sowed rice plant; assay: Test Example 3: effect on crop by foliage application, Wagner pot (symbol b); conditions: application herbicide amount 320 g/ha
# Summary of the method: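 Alluvial soil in a 1/10000-are Wagner pot was flooded to a water depth of 0.1–0.5 cm. Echinochloa crus-galli var. crus-galli, Leptochloa chinensis, Cyperus difformis and rice were sown into it and grown in a greenhouse at 25–30 °C.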
# [24] = test system: Lolium multiflorum Lam.; assay: Test Example 5: herbicidal effect by foliage application, plastic box (symbol K); conditions: 320 g/ha, 3 weeks after application
# Summary of the method: as §2
# [25] = test system: Stellaria media; assay: Test Example 5: herbicidal effect by foliage application, plastic box (symbol P); conditions: 320 g/ha, 3 weeks after application
# Summary of the method: as §2
# [26] = test system: rice plant; assay: Test Example 5: effect on crop by foliage application, plastic box (symbol b); conditions: 320 g/ha, 3 weeks after application
# Summary of the method: as §1
# [27] = test system: Setaria viridis; assay: Test Example 5: herbicidal effect by foliage application, plastic box (symbol G); conditions: 320 g/ha, 3 weeks after application
# Summary of the method: as §2
compound,measurement,setting,value
CC(CC1CC(OC(=O)N(C)C)=C(c2c(C)cc(-c3ccc(Cl)cc3)cc2C)C1=O)=NOCC(F)(F)F (mixture of isomers) [9-026],"e: wheat, effect on crop grade",[1],0 (Herbicidal ratio of 5% or lower (almost no effect))
same,"L: Apera spica-venti, herbicidal effect grade",[2],0 (Herbicidal ratio of 5% or lower (almost no effect))
same,"Q: Galium spurium, herbicidal effect grade",[3],0 (Herbicidal ratio of 5% or lower (almost no effect))
same,D (Leptochloa chinensis) herbicidal effect grade,[4]; Table 24,3 (Herbicidal ratio of 40% or higher and lower than 70%)
same,C (Monochoria vaginalis) herbicidal effect grade,[5],0 (Herbicidal ratio of 5% or lower (almost no effect))
same,"F: Digitaria ciliaris, herbicidal effect grade",[6],5 (Herbicidal ratio of 90% or more (almost completely withered))
same,E herbicidal effect grade,[7]; Table 24,0 (Herbicidal ratio of 5% or lower (almost no effect))
same,"d: soybean, effect on crop grade",[8],0 (Herbicidal ratio of 5% or lower (almost no effect))
same,"M: Abutilon theophrasti, herbicidal effect grade",[9],0 (Herbicidal ratio of 5% or lower (almost no effect))
same,"f: beet, effect on crop grade",[10],0 (Herbicidal ratio of 5% or lower (almost no effect))
same,a (transplanted rice plant) effect on crop grade,[11],0 (Herbicidal ratio of 5% or lower (almost no effect))
same,"O: Chenopodium album, herbicidal effect grade",[12],0 (Herbicidal ratio of 5% or lower (almost no effect))
same,"g: rapeseed, effect on crop grade",[13],0 (Herbicidal ratio of 5% or lower (almost no effect))
same,A (Echinochloa oryzacola Vasing.) herbicidal effect grade,[14],4 (Herbicidal ratio of 70% or higher and lower than 90%)
same,"c: corn, effect on crop grade",[15],5 (Herbicidal ratio of 90% or more (almost completely withered))
same,"N: Amaranthus retroflexus, herbicidal effect grade",[16],0 (Herbicidal ratio of 5% or lower (almost no effect))
same,"R: Veronica persica, herbicidal effect grade",[17],0 (Herbicidal ratio of 5% or lower (almost no effect))
same,B (Scirpus juncoides) herbicidal effect grade,[18],0 (Herbicidal ratio of 5% or lower (almost no effect))
same,"I: Avena fatua, herbicidal effect grade",[19],3 (Herbicidal ratio of 40% or higher and lower than 70%)
same,"J: Alopecurus myosuroides, herbicidal effect grade",[20],0 (Herbicidal ratio of 5% or lower (almost no effect))
same,H (Echinochloa crus-galli var. crus-galli) herbicidal effect grade,[21]; Table 24,0 (Herbicidal ratio of 5% or lower (almost no effect))
same,"H: Echinochloa crus-galli var. crus-galli, herbicidal effect grade",[22],0 (Herbicidal ratio of 5% or lower (almost no effect))
same,b (directly sowed rice plant) effect on crop grade,[23]; Table 24,0 (Herbicidal ratio of 5% or lower (almost no effect))
same,"K: Lolium multiflorum Lam., herbicidal effect grade",[24],0 (Herbicidal ratio of 5% or lower (almost no effect))
same,"P: Stellaria media, herbicidal effect grade",[25],0 (Herbicidal ratio of 5% or lower (almost no effect))
same,"b: directly sowed rice plant, effect on crop grade",[26],0 (Herbicidal ratio of 5% or lower (almost no effect))
same,"G: Setaria viridis, herbicidal effect grade",[27],4 (Herbicidal ratio of 70% or higher and lower than 90%)
COCCOc1cc(C)c(C2=C(O)CC(CC(C)=NOC)C2=O)c(C)c1 (stereo not drawn) [6-098],"e: wheat, effect on crop (criteria of Test Example 1)",[1],2 (Herbicidal ratio of 20% or higher and lower than 40%)
same,"L: Apera spica-venti, herbicidal effect (criteria of Test Example 1)",[2],4 (Herbicidal ratio of 70% or higher and lower than 90%)
same,"Q: Galium spurium, herbicidal effect (criteria of Test Example 1)",[3],0 (Herbicidal ratio of 5% or lower (almost no effect))
same,"herbicidal effect on D (Leptochloa chinensis), grade 0-5",[4],5 (Herbicidal ratio of 90% or more (almost completely withered))
same,"Herbicidal effect grade, C: Monochoria vaginalis",[5],0 (Herbicidal ratio of 5% or lower (almost no effect))
same,"F: Digitaria ciliaris, herbicidal effect (criteria of Test Example 1)",[6],3 (Herbicidal ratio of 40% or higher and lower than 70%)
same,"herbicidal effect on E, grade 0-5",[7],4 (Herbicidal ratio of 70% or higher and lower than 90%)
same,"d: soybean, effect on crop (criteria of Test Example 1)",[8],0 (Herbicidal ratio of 5% or lower (almost no effect))
same,"M: Abutilon theophrasti, herbicidal effect (criteria of Test Example 1)",[9],0 (Herbicidal ratio of 5% or lower (almost no effect))
same,"f: beet, effect on crop (criteria of Test Example 1)",[10],0 (Herbicidal ratio of 5% or lower (almost no effect))
same,"Effect grade on crop, a: transplanted rice plant",[11],1 (Herbicidal ratio of 5% or higher and lower than 20%)
same,"O: Chenopodium album, herbicidal effect (criteria of Test Example 1)",[12],0 (Herbicidal ratio of 5% or lower (almost no effect))
same,"g: rapeseed, effect on crop (criteria of Test Example 1)",[13],0 (Herbicidal ratio of 5% or lower (almost no effect))
same,"Herbicidal effect grade, A: Echinochloa oryzacola Vasing.",[14],0 (Herbicidal ratio of 5% or lower (almost no effect))
same,"c: corn, effect on crop (criteria of Test Example 1)",[15],1 (Herbicidal ratio of 5% or higher and lower than 20%)
same,"N: Amaranthus retroflexus, herbicidal effect (criteria of Test Example 1)",[16],0 (Herbicidal ratio of 5% or lower (almost no effect))
same,"R: Veronica persica, herbicidal effect (criteria of Test Example 1)",[17],0 (Herbicidal ratio of 5% or lower (almost no effect))
same,"Herbicidal effect grade, B: Scirpus juncoides",[18],1 (Herbicidal ratio of 5% or higher and lower than 20%)
same,"I: Avena fatua, herbicidal effect (criteria of Test Example 1)",[19],1 (Herbicidal ratio of 5% or higher and lower than 20%)
same,"J: Alopecurus myosuroides, herbicidal effect (criteria of Test Example 1)",[20],3 (Herbicidal ratio of 40% or higher and lower than 70%)
same,"herbicidal effect on H (Echinochloa crus-galli var. crus-galli), grade 0-5",[21],3 (Herbicidal ratio of 40% or higher and lower than 70%)
same,"H: Echinochloa crus-galli var. crus-galli, herbicidal effect (criteria of Test Example 1)",[22],2 (Herbicidal ratio of 20% or higher and lower than 40%)
same,"effect on crop b (directly sowed rice plant), grade 0-5",[23],5 (Herbicidal ratio of 90% or more (almost completely withered))
same,"K: Lolium multiflorum Lam., herbicidal effect (criteria of Test Example 1)",[24],5 (Herbicidal ratio of 90% or more (almost completely withered))
same,"P: Stellaria media, herbicidal effect (criteria of Test Example 1)",[25],0 (Herbicidal ratio of 5% or lower (almost no effect))
same,"b: directly sowed rice plant, effect on crop (criteria of Test Example 1)",[26],2 (Herbicidal ratio of 20% or higher and lower than 40%)
same,"G: Setaria viridis, herbicidal effect (criteria of Test Example 1)",[27],3 (Herbicidal ratio of 40% or higher and lower than 70%)
